Laboratory results: patent publication US20200253506A1, “TREATMENT OF A DISEASE OF THE GASTROINTESTINAL TRACT WITH AN INTEGRIN INHIBITOR” (Progenity, Inc., priority 2016, published 2020)

Assay: Tacrolimus tissue, plasma and GI content pharmacokinetics, oral vs intra-cecal ingestible device delivery
Type: in vivo
Settings: swine; intra-cecal compared to oral; 12 hours post-dose; FIG. 76
Description: No further randomization procedure was employed.
Animals in Group 1 received an ingestible device containing 0.8 mL of vehicle solution (80% alcohol, 20% HCO-60). Animals in Group 2 received orally […] liquid formulation of tacrolimus at 4 mg/0.8 mL per animal (Prograf: 5 mg/mL). Animals in Group 3 received intra-cecally an ingestible device containing tacrolimus at 1 mg in 0.8 mL per ingestible device. Animals in Group 4 received intra-cecally an ingestible device containing tacrolimus at 2 mg in 0.8 mL per ingestible device. Animals in Group 5 received intra-cecally an ingestible device containing tacrolimus at 4 mg in 0.8 mL per ingestible device. […]
Approximately 200-400 mg of rectal content were collected, if available, with a fecal swab (Copan Diagnostics Nylon Flocked Dry Swabs, 502CS01). The fecal swab was pre-weighed and weighed after collection in the collection tube (Sterile Tube and Cap No Media, PFPM913S), and the sample weight was recorded. […]
For tissue necropsy, small intestine fluid and cecal fluid were collected separately from all the animals into two separate square plastic bottles, and stored at −20° C. The length and diameter of the cecum and the colon was measured from one animal in each group and recorded for reference. […] All samples were weighed, and the tissue sample weights were recorded. […]

mean concentration of tacrolimus in the cecum tissue and the proximate colon tissue: higher
Structure (SMILES): C=CC[C@@H]1/C=C(\C)C[C@H](C)C[C@H](OC)[C@H]2O[C@@](O)(C(=O)C(=O)N3CCCC[C@H]3C(=O)O[C@H](/C(C)=C/[C@@H]3CC[C@@H](O)[C@H](OC)C3)[C@H](C)[C@@H](O)CC1=O)[C@H](C)C[C@@H]2OC [tacrolimus]
